The values that follow come from ChEMBL document CHEMBL3399993, “Design and synthesis of novel quinoline-aminopiperidine hybrid analogues as Mycobacterium tuberculosis DNA gyraseB inhibitors” (Bioorg Med Chem, 2015).

Broadly, the MIC is the lowest concentration found to suppress growth.

The test system of this assay is Mycobacterium tuberculosis. In words: Antimycobacterial activity against extensively drug resistant Mycobacterium tuberculosis. It counts as functional.

≈ marks a conversion by molar mass, not a printed value.

With `Cc1cc(N2CCC(NC(=O)Nc3ccc(F)cc3)CC2)c2cc(F)ccc2n1`, it took 3.82 µM (≈ 1.51 µg/mL) to inhibit growth (MIC).
Turning to `COc1ccc2nc(C)cc(N3CCC(NC(=S)Nc4ccccc4)CC3)c2c1`, the MIC was found to be 7.62 µM (≈ 3.1 µg/mL).
Consider `COc1ccc2nc(C)cc(N3CCC(NC(=S)Nc4ccc(Cl)cc4)CC3)c2c1`, for which inhibition of growth (MIC) required 6.94 µM (≈ 3.06 µg/mL).
Regarding `COc1ccc2nc(C)cc(N3CCC(NC(=S)Nc4ccc([N+](=O)[O-])cc4)CC3)c2c1`, the MIC came to 1.72 µM (≈ 0.777 µg/mL).
